The results in this text go back to patent publication US10479780B2, “Aminopyrazole derivatives” (Chugai Seiyaku Kabushiki Kaisha, priority 2015, dated 2019).

Assay type in all cases: biochemical
The target of one experiment is T1, human Lck enzyme (Homo sapiens, UniProt P06239).
T1 construct: purchased Carna Biosciences, Inc. 08-170
The experiment in a line: Lck enzyme inhibitory activity (time-resolved fluorometry, biotinylated peptide phosphorylation). To be noted: read-out: LCK_IC50. The procedure, abridged:
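Readout pairs a europium cryptate-labelled anti-phosphotyrosine antibody with XL665-streptavidin, measured by time-resolved fluorescence. IC50 derived from percent inhibition against untreated controls.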

For a further experiment, the target named is T2, human Yes1 enzyme (Homo sapiens, UniProt P07947).
T2 construct: made in house
The experiment in a line: Yes1 enzyme inhibitory activity (time-resolved fluorometry, biotinylated peptide phosphorylation). To be noted: read-out: YES_IC50. The gist of the method: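 Inhibition was expressed against a compound-free control to give IC50, using TR-FRET read-out (Eu-cryptate anti-pTyr antibody, streptavidin-XL665).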

The target in a further experiment is T3, human Src enzyme (Homo sapiens, UniProt P12931).
T3 construct: purchased Carna Biosciences, Inc. 08-173
Kind of experiment: Src enzyme inhibitory activity (time-resolved fluorometry, biotinylated peptide phosphorylation). Particulars: read-out: SRC_IC50. The gist of the method: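 Compounds were tested for blocking tyrosine phosphorylation of a biotinylated peptide substrate by recombinant human Src. Phosphorylated product was quantified by time-resolved fluorometry using europium cryptate and XL665 conjugates, and IC50 was calculated against the compound-free control.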

Where [1] appears, read: biotinylated peptide phosphorylation.

Each structure is given as a SMILES string. Read-outs that look alike come from different tables or passages of the source.

T2 sequence (P07947 whole entry): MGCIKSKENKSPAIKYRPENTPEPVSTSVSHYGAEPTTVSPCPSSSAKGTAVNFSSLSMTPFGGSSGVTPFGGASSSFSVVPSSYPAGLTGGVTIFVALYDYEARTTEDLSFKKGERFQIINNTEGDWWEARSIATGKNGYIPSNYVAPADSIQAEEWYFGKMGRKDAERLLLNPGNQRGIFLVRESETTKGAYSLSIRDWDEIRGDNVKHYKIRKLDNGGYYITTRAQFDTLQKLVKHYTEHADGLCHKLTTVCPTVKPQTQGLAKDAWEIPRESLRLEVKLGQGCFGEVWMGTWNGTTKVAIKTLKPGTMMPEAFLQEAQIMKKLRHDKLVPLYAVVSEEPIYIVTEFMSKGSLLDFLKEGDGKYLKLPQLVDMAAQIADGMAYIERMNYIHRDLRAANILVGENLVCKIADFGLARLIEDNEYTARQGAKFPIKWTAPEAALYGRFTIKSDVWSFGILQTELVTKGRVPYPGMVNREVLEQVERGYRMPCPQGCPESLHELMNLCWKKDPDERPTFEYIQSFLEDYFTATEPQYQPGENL
T1 sequence (P06239 whole entry): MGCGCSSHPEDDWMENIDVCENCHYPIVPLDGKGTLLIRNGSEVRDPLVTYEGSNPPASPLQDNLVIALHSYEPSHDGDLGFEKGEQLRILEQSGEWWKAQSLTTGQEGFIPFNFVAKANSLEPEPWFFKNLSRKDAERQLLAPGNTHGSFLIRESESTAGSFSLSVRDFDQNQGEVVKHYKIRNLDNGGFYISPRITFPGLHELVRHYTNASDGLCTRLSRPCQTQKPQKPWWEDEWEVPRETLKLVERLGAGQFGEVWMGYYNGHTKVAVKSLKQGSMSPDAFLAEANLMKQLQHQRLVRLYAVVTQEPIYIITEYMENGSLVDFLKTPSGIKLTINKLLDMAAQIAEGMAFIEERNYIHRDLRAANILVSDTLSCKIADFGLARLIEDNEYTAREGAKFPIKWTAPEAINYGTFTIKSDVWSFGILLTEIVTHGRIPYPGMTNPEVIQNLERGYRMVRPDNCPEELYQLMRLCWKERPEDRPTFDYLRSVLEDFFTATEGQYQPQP
T3 sequence (P12931 whole entry): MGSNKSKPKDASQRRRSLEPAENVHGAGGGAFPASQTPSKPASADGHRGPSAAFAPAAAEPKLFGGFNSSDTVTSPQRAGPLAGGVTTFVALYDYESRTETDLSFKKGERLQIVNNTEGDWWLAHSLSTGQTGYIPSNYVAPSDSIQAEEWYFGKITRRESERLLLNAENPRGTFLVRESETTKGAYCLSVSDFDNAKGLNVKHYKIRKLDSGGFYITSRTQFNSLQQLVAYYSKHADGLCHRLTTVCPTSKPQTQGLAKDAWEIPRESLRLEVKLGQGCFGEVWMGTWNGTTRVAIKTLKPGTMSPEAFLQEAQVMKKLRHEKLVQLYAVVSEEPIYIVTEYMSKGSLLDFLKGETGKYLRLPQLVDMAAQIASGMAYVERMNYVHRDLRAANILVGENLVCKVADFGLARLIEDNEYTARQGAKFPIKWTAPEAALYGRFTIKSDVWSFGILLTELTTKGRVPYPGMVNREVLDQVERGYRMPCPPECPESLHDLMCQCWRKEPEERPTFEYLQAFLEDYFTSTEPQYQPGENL

For `Cc1cc2cc(C(=O)c3cnn(-c4ccc(Oc5ccccc5F)cc4C)c3N)[nH]c2cc1C1CCN(S(=O)(=O)C2CC2)CC1` [Example 5-1-131, [5-amino-1-[4-(2-fluorophenoxy)-2-methylphenyl]pyrazol-4-yl]-[6-(1-cyclopropylsulfonylpiperidin-4-yl)-5-methyl-1H-indol-2-yl]methanone], the IC50 at human Lck enzyme was found to be 5.6 nM; on human Yes1 enzyme, 1.1 nM; at human Src enzyme, 7.4 nM.
On to `Cc1cc(Oc2c(F)cccc2F)ncc1-n1ncc(C(=O)c2cc3cc(Cl)c(NS(C)(=O)=O)cc3[nH]2)c1N` [Example 4-2-086, N-[2-[5-amino-1-[6-(2,6-difluorophenoxy)-4-methylpyridin-3-yl]pyrazole-4-carbonyl]-5-chloro-1H-indol-6-yl]methanesulfonamide], for which the IC50 on human Lck enzyme (setting [1]) came to 8.3 nM; at human Yes1 enzyme (setting [1]), 1.6 nM; on human Src enzyme (setting [1]), 99 nM.
The like results for `Cc1cc(Oc2ccccc2F)cc(F)c1-n1ncc(C(=O)c2cc3cc(OCC(F)F)c(N4CCOC4=O)cc3[nH]2)c1N` [Example 4-25-017, 3-[2-[5-amino-1-[2-fluoro-4-(2-fluorophenoxy)-6-methylphenyl]pyrazole-4-carbonyl]-5-(2,2-difluoroethoxy)-1H-indol-6-yl]-1,3-oxazolidin-2-one] were, in that order, 2.3 nM, 1.3 nM and 6.4 nM.
In the case of `Cc1cc(Oc2ccccc2)cc(F)c1-n1ncc(C(=O)c2cc3cc(NS(C)(=O)=O)c(F)cc3[nH]2)c1N` [Example 4-2-103, N-[2-[5-amino-1-(2-fluoro-6-methyl-4-phenoxyphenyl)pyrazole-4-carbonyl]-6-fluoro-1H-indol-5-yl]methanesulfonamide], the IC50 at human Lck enzyme (setting [1]) came out at 0.97 nM; on human Yes1 enzyme (setting [1]), 0.41 nM; at human Src enzyme (setting [1]) it was 7 nM.
The like results for `Cc1cc(Oc2cc(F)ccc2F)cc(F)c1-n1ncc(C(=O)c2cc3cc(F)c(NS(=O)(=O)C4CC4)cc3[nH]2)c1N` [Example 4-7-008, N-[2-[5-amino-1-[4-(2,5-difluorophenoxy)-2-fluoro-6-methylphenyl]pyrazole-4-carbonyl]-5-fluoro-1H-indol-6-yl]cyclopropanesulfonamide] were, in that order, 140 nM, 5.9 nM and 490 nM.
The like results for `Cc1cc(Oc2cccc(Cl)c2)cc(F)c1-n1ncc(C(=O)c2cc3cc(F)c(NS(C)(=O)=O)cc3[nH]2)c1N` [Example 4-7-011, N-[2-[5-amino-1-[4-(3-chlorophenoxy)-2-fluoro-6-methylphenyl]pyrazole-4-carbonyl]-5-fluoro-1H-indol-6-yl]methanesulfonamide] were, in that order, 97 nM, 14 nM and 200 nM.
Take `Cc1cc(Oc2ccccc2F)ccc1-n1ncc(C(=O)c2cc3cc(OCC(F)F)c(N4C(=O)C(C)(C)NC4=S)cc3[nH]2)c1N` [Example 4-23-037, 3-[2-[5-amino-1-[4-(2-fluorophenoxy)-2-methylphenyl]pyrazole-4-carbonyl]-5-(2,2-difluoroethoxy)-1H-indol-6-yl]-5,5-dimethyl-2-sulfanylideneimidazolidin-4-one]: the IC50 amounted to 6.7 nM at human Lck enzyme (setting [1]), 0.76 nM on human Yes1 enzyme (setting [1]) and 12 nM on human Src enzyme (setting [1]).
With `COc1cc2cc(C(=O)c3cnn(-c4cnc(Oc5ccccc5Cl)cc4C)c3N)[nH]c2cc1NS(C)(=O)=O` [Example 4-1-010, N-[2-[5-amino-1-[6-(2-chlorophenoxy)-4-methylpyridin-3-yl]pyrazole-4-carbonyl]-5-methoxy-1H-indol-6-yl]methanesulfonamide], the IC50 at human Lck enzyme (setting [1]) was 25 nM; at human Yes1 enzyme (setting [1]), 1.1 nM; on human Src enzyme (setting [1]), 46 nM.
For `Cc1cc2cc(C(=O)c3cnn(-c4ccc(Oc5ccccc5F)cc4C)c3N)[nH]c2cc1N1C(=O)NC2(CCOCC2)C1=O` [Example 5-1-408, 3-[2-[5-amino-1-[4-(2-fluorophenoxy)-2-methylphenyl]pyrazole-4-carbonyl]-5-methyl-1H-indol-6-yl]-8-oxa-1,3-diazaspiro[4.5] decane-2,4-dione] the same measures were 6.1 nM, 1.2 nM and 43 nM.
In the case of `Cc1cc(-n2ncc(C(=O)c3cc4cc(OC5CCN(C6COC6)CC5)c(Br)cc4[nH]3)c2N)ccc1Oc1ccccc1F` [Example 5-1-220, (5-amino-1-(4-(2-fluorophenoxy)-3-methylphenyl)-1H-pyrazol-4-yl)(6-bromo-5-((1-(oxetan-3-yl)piperidin-4-yl)oxy)-1H-indol-2-yl)methanone], the IC50 at human Lck enzyme was found to be 56 nM; at human Yes1 enzyme, 1.5 nM; on human Src enzyme it was 180 nM.
Turning to `Cc1cc2cc(C(=O)c3cnn(-c4cnc(Oc5ccccc5F)cc4C)c3N)[nH]c2cc1NS(=O)(=O)CC(=O)N1CCOCC1` [Example 4-15-001, N-(2-(5-amino-1-(6-(2-fluorophenoxy)-4-methylpyridin-3-yl)-1H-pyrazole-4-carbonyl)-5-methyl-1H-indol-6-yl)-2-morpholino-2-oxoethanesulfonamide], the IC50 on human Lck enzyme (setting [1]) stood at 9.9 nM; on human Yes1 enzyme (setting [1]), 1.1 nM; on human Src enzyme (setting [1]) it was 18 nM.
The like results for `Cc1cc2cc(C(=O)c3cnn(-c4cnc(Oc5c(F)cccc5F)cc4C)c3N)[nH]c2cc1NS(C)(=O)=O` [Example 4-1-001, N-{2-{5-amino-1-[6-(2,6-difluorophenoxy)-4-methylpyridin-3-yl]pyrazole-4-carbonyl}-5-methyl-1H-indol-6-yl}methanesulfonamide] were, in that order, 8.2 nM, 1.2 nM and 45 nM.
The like results for `Cc1cc(Oc2ccccc2F)ncc1-n1ncc(C(=O)c2cc3cc(OCC(F)F)c(C4CCN(S(C)(=O)=O)CC4)cc3[nH]2)c1N` [Example 4-17-021, [5-amino-1-[6-(2-fluorophenoxy)-4-methylpyridin-3-yl]pyrazol-4-yl]-[5-(2,2-difluoroethoxy)-6-(1-methylsulfonylpiperidin-4-yl)-1H-indol-2-yl]methanone] were, in that order, 5.6 nM, 0.76 nM and 9.7 nM.
For `Cc1cc(Oc2cccc(F)c2F)ncc1-n1ncc(C(=O)c2cc3cc(F)c(NS(=O)(=O)CCCF)cc3[nH]2)c1N` [Example 4-2-022, N-[2-[5-amino-1-[6-(2,3-difluorophenoxy)-4-methylpyridin-3-yl]pyrazole-4-carbonyl]-5-fluoro-1H-indol-6-yl]-3-fluoropropane-1-sulfonamide] the same measures were 26 nM, 5.4 nM and 140 nM.
Turning to `Cc1cc(Oc2cc(F)cc(F)c2)ncc1-n1ncc(C(=O)c2cc3cc(F)c(NS(=O)(=O)CCCF)cc3[nH]2)c1N` [Example 4-2-028, N-[2-[5-amino-1-[6-(3,5-difluorophenoxy)-4-methylpyridin-3-yl]pyrazole-4-carbonyl]-5-fluoro-1H-indol-6-yl]-3-fluoropropane-1-sulfonamide], the IC50 on human Lck enzyme (setting [1]) is 120 nM; on human Yes1 enzyme (setting [1]) it was 15 nM; on human Src enzyme (setting [1]) it was 340 nM.
Take `Cc1cc(Oc2c(F)cccc2F)ncc1-n1ncc(C(=O)c2cc3cc(N4CCOCC4)c(N4CCCS4(=O)=O)cc3[nH]2)c1N` [Example 4-25-008, [5-amino-1-[6-(2,6-difluorophenoxy)-4-methylpyridin-3-yl]pyrazol-4-yl]-[6-(1,1-dioxo-1,2-thiazolidin-2-yl)-5-morpholin-4-yl-1H-indol-2-yl]methanone]: the figures for the IC50 on human Lck enzyme (setting [1]), on human Yes1 enzyme (setting [1]) and on human Src enzyme (setting [1]) were 8.2 nM, 1.5 nM and 22 nM, respectively.
On to `Nc1c(C(=O)c2cc3cc(F)c(NS(=O)(=O)CCCF)cc3[nH]2)cnn1-c1c(F)cc(Oc2cccc(F)c2F)cc1F` [Example 5-1-034, N-[2-[5-amino-1-[4-(2,3-difluorophenoxy)-2,6-difluorophenyl]pyrazole-4-carbonyl]-5-fluoro-1H-indol-6-yl]-3-fluoropropane-1-sulfonamide], for which the IC50 at human Lck enzyme stood at 62 nM; at human Yes1 enzyme, 3.5 nM; on human Src enzyme, 180 nM.
For `COC(=O)[C@H](Cc1cnc[nH]1)NC(=O)Nc1cc2[nH]c(C(=O)c3cnn(-c4ccc(Oc5ccccc5F)cc4C)c3N)cc2cc1OCC(F)F` [Example 5-1-246, Methyl (2S)-2-[[2-[5-amino-1-[4-(2-fluorophenoxy)-2-methylphenyl]pyrazole-4-carbonyl]-5-(2,2-difluoroethoxy)-1H-indol-6-yl]carbamoylamino]-3-(1H-imidazol-5-yl) propanoate] the same measures were 7.1 nM, 1.6 nM and 16 nM.
With `Cc1cc(Oc2cccc(F)c2F)cc(F)c1-n1ncc(C(=O)c2cc3cc(Cl)c(NS(C)(=O)=O)cc3[nH]2)c1N` [Example 4-2-080, N-[2-[5-amino-1-[4-(2,3-difluorophenoxy)-2-fluoro-6-methylphenyl]pyrazole-4-carbonyl]-5-chloro-1H-indol-6-yl]methanesulfonamide], the IC50 was 68 nM at human Lck enzyme (setting [1]), 12 nM at human Yes1 enzyme (setting [1]) and 170 nM at human Src enzyme (setting [1]).
For `Cc1cc(Oc2ccccc2Cl)cc(F)c1-n1ncc(C(=O)c2cc3cc(F)c(NS(=O)(=O)C4CC4)cc3[nH]2)c1N` [Example 4-7-010, N-[2-[5-amino-1-[4-(2-chlorophenoxy)-2-fluoro-6-methylphenyl]pyrazole-4-carbonyl]-5-fluoro-1H-indol-6-yl]cyclopropanesulfonamide] the same measures were 100 nM, 9 nM and 280 nM.
